Results published in patent US20140116103A1, “FOLIARLY APPLICABLE SILICON NUTRITION COMPOSITIONS & METHODS” (priority 2008, published 2014).

Columns and labels:
Bipolaris oryzae = type: in vivo, Bipolaris oryzae on rice; conditions: A, B, C, F compared to control, D compared to A
Protocol: The trial was arranged in a completely randomized design with five replications. Each experimental unit consisted of one plastic container with 5 liters of nutrient solution and four rice plants. The experiment was repeated once. Compositions A-F were applied to rice leaves as foliar sprays 24 hours before inoculation with the brown spot pathogen Bipolaris oryzae. Solutions of compositions A-D were prepared at 2% concentration. The fungicide (composition F) was prepared at 1.5 ml/liter concentration. Plants at the fifth leaf tiller growth stage were sprayed using a DeVilbiss No. 15 atomizer. The base of the plants was covered during spraying to prevent run-off of the sprayed materials into the nutrient solution.
A pathogenic isolate of B. oryzae (CNPAF-HO 82), obtained from symptomatic rice plants, was used to inoculate the plants. A conidial suspension of B. oryzae (5×10^3 conidia/ml) was applied as a fine mist to the adaxial leaf blades of each plant until runoff using a VL Airbrush atomizer (Paasche Airbrush Co., Chicago, Ill.). Immediately after inoculation, plants were transferred to a mist chamber at 25±2° C. with an initial 24 h dark period. […]
Brown spot severity on leaves of each plant was scored at 24, 48, 72 and 96 hours after inoculation using an International Rice Research Institute (IRRI) scale based on the percentage of diseased leaf area.

[1] = generally accepted limit; cited from earlier work

Row | SMILES | necrotic lesions on leaves (number and size) (Bipolaris oryzae) | limit of solubility in water [1]
1 | CC1COC(Cn2cncn2)(c2ccc(Oc3ccc(Cl)cc3)cc2Cl)O1 (centres unmarked) [Composition F, diphenoconazole] | complete absence of lesions | 
2 | O[Si](O)(O)O [monosilicic acid] |  | about 2 mM
